Like-named read-outs stand apart in the source and are kept apart here.
How the values were obtained:
Format in all cases: cell-based
[1] = test system: vancomycin-resistant Enterococcus spp. (VRE); assay: Broth microdilution MIC (CLSI), Example 1; conditions: for MIC90: Enterococcus isolates of Table 4; for MIC: Enterococcus, VRE, read-out: MIC
Protocol: Cation adjusted Mueller Hinton Broth (CAMHB) was prepared using 100 mL sterile Mueller Hinton broth (pH adjusted). To each 100 mL volume, 125 μL of calcium stock solution (10 mg Ca^2+ per ml) and 43 μL magnesium stock solution (10 mg Mg^2+ per mL) was aseptically added. Sufficient broth is made up for daily use, with unused portions being stored at 4° C. overnight.
Potency was described as 1000 mg/g or 100%. The powder was dissolved in 10 mL DMSO and 1 mL volumes were aliquoted into eppendorf tubes and stored at −80° C.
Serial dilutions were prepared in 96 well plates were set up in a safety cabinet according to methods standard in the art. Briefly: 90 μL of the working antibiotic solution was added to each well in Column 12 of the plate, and mixed well, before 90 μL was transferred to column 11. The solutions were mixed again, and then transferred to the next column as before, continuing the dilutions through to column 3. Mixing the well requires the pick up and expulsion of 90 μL in each well 3-4 times before picking up and transferring the 90 μL to the next well. […] The trays were set up as follows: 2 strains were tested in duplicate in one tray, such that strain 1 was located in rows A to D, strain 2 was located in rows E to H, etc.
Fresh cultures of bacteria were prepared for testing on sheep blood agar (SBA), and overnight incubation at 37° C. as follows; 2-3 colonies of each strain in 7 mL sterile saline, and the OD600 measured as an indication of the density (approx. […] or 0.5 McFarland Standard). The bacterial suspension was adjusted to a final absorbance of 0.08 to 0.100, using saline to achieve correct density, and as the blank. Within 15 minutes of preparation, the adjusted bacterial suspension with sterile saline 1:20 (1 mL into 19 mL sterile saline) to achieve a final bacterial concentration of 4 to 5×10^6 CFU/mL. The bacterial solution was placed into a sterile trough and 10 μL of bacterial solution added into wells 2 through to 12 on each required row (dilution of 1:10, with final concentration of bacteria in wells=5×10^5 CFU/mL). The tray was sealed and incubated at 37° C. for 18-24 h. The purity of bacterial suspension was confirmed by streaking out 50 μL of the 1:20 dilution onto a SBA plate, which was incubated for 37° C. for 18 h and examined. Viable counts were carried out to ensure that the correct concentration of bacteria and been added to the wells. The diluted bacterial solution (4 to 5×10^6 CFU/mL) was diluted 1:10 downwards by adding 100 μL to 900 μL of sterile saline in sterile tubes, and the serial dilutions continued 1:10 for 5 tubes. 100 μL (4-5 drops) of the 4th and 5th dilutions (tube 4=105 and tube 5=10^6 CFU/ml) was plated around in duplicate on pre-dried PCA agar plates and incubated at 37° C. overnight. The following day the number of colonies on the plates was counted and the average count in 100 μL obtained. The study was multiplied by 10 to obtain a viable bacterial count per mL.
Minimum inhibitory concentrations (μg/mL) were determined using the broth microdilution method recommended by the Clinical and Laboratory Standards Institute (CLSI) (Methods for Dilution Antimicrobial Susceptibility Tests for Bacteria That Grow Aerobically; Approved Standard—Seventh Edition. CLSI M7-A7, 2006; Performance Standards for Antimicrobial Disk and Dilution Susceptibility Tests for Bacteria Isolated from Animals; Approved Standard—Second Edition. CLSI M31-A2, 2002; Performance Standards for Antimicrobial Susceptibility Testing; CLSI M2-A9, 2006).
MIC breakpoints were determined by visual assessment and then confirmed using an ELISA plate reader, measuring absorbance levels at 450 nm. Bacterial growth (turbidity) in the wells with antimicrobial was compared with the amount of growth (turbidity) in the growth-control well (containing no antimicrobial).

[2] = test system: Staphylococcus pseudintermedius isolates (MSSP and MRSP); assay: MIC (CLSI), Example 6; conditions: for MIC: Staphylococcus pseudintermedius
Protocol: Anti-staphylococcal compounds were then tested against all 23 isolates and minimum inhibitory concentrations (MIC) were determined according to standard protocols. After the MICs were determined, the minimum bactericidal concentrations were performed to determine if these compounds are bacteriostatic or bacteriocidal.

Salmonella arizonae = assay: Broth microdilution MIC, Example 7
Protocol: Minimum inhibitory concentrations (μg/ml) were determined using the broth microdilution method recommended by the Clinical and Laboratory Standards Institute (CLSI). […] Bacterial growth (turbidity) in the wells with antimicrobial was compared with the amount of growth (turbidity) in the growth-control well (containing no antimicrobial). All isolates were tested in duplicate, if there was a difference of greater than one two-fold dilution in the results, the test was repeated a third time. The purity of the isolates was closely monitored during testing by subculturing the prepared bacterial inoculum onto SBA (sheep blood agar). The MICs of the control strains for the antimicrobial ampicillin were determined for each testing run as an internal quality control. The MIC50, […] and MIC range (minimum and maximum) were calculated for each of the bacterial groups.

[3] = 23 Staphylococcus pseudintermedius isolates

N=C(N/N=C/c1ccc(Cl)cc1)N/N=C/c1ccc(Cl)cc1 [NCL812, 1,3-bis[(E)-(4-chlorophenyl)methyleneamino]guanidine]
2 to 4 µg/mL: MIC range ([1]; E. faecalis, 4 isolates) | MIC range ([1]; E. faecium, 16 isolates)
1 to 4 µg/mL: MIC range [2, 3] | MIC range ([2]; Staphylococcus pseudintermedius isolates)
> 128 µg/mL: MIC (Salmonella arizonae; Salmonella enterica, Salmonella arizonae, read-out: MIC)
2 µg/mL: MIC ([1]; B09/2087, Test 1) | MIC ([1]; Enterococcus 011, Test 1) | MIC ([1]; Enterococcus 012, Test 1) | MIC ([1]; Enterococcus 012, Test 2) | MIC ([1]; Enterococcus 013, Test 1) | MIC ([1]; Enterococcus 013, Test 2) | MIC ([1]; VRE 001, Test 1) | MIC ([1]; VRE 001, Test 2) | MIC ([1]; VRE 003, Test 1) | MIC ([1]; VRE 003, Test 2) | MIC ([1]; VRE 005, Test 1) | MIC ([1]; VRE 005, Test 2) | MIC ([1]; VRE 006, Test 1) | MIC ([1]; VRE 006, Test 2) | MIC50 [2, 3] | MIC ([2]; 23 Staphylococcus pseudintermedius isolates, read-out: MIC mode) | MIC ([2]; Staphylococcus pseudintermedius isolates, read-out: MIC mode) | MIC ([2]; isolate S2P2, read-out: MIC) | MIC ([2]; isolate S3P3, read-out: MIC) | MIC ([2]; isolate S5P5, read-out: MIC) | MIC ([2]; isolate S6P6, read-out: MIC) | MIC ([2]; isolate S7P7, read-out: MIC) | MIC ([2]; isolate S8P8, read-out: MIC) | MIC ([2]; isolate S9P9, read-out: MIC) | MIC ([2]; isolate S10P10, read-out: MIC) | MIC ([2]; isolate S12P12, read-out: MIC) | MIC ([2]; isolate S13P13, read-out: MIC) | MIC ([2]; isolate S14P14, read-out: MIC) | MIC ([2]; isolate S16P16, read-out: MIC) | MIC ([2]; isolate S17P17, read-out: MIC) | MIC ([2]; isolate S21P21, read-out: MIC) | MIC ([2]; isolate S23P23, read-out: MIC)
4 µg/mL: MIC90 ([1]; Test 1) | MIC90 ([1]; Test 2)
>128 µg/mL: MIC (Salmonella arizonae; S. arizonae, 1st) | MIC (Salmonella arizonae; S. arizonae, 2nd)
1 µg/mL: MIC ([2]; isolate S4P4, read-out: MIC)

Source: patent publication US10253002B2, “Compounds and methods of treating infections” (Neoculi Pty Ltd., priority 2013, dated 2019)
